{"source": "patent US4164577A", "about": "“6-(2-Acylamino-2-arylacetamido)penicillanic acids” (priority 1977, dated 1979)", "test_in_all_cases": "in vitro antibacterial activity, minimum inhibitory concentration (agar dilution)", "assay_type_in_all_cases": "cell-based", "key": {"[1]": {"test_system": "Pseudomonas aeruginosa M-12", "settings": "ATCC15692, 20 h, read-out: Minimum Inhibitory concentration (MIC) Pseudomonas aeruginosa M-12", "experimental": "(§1) The compounds of this invention were tested for antibacterial activity according to the following procedure.\n(§2) Nutrient broth and nutrient agar were prepared according to the conventional procedure. Nutrient agar was used as a vehicle. The stock solution was prepared at 100 μg/ml of the test material in the vehicle. Two-fold dilutions were made with the vehicle and then the diluted stock solution was added to a petri dish and solidified by chilling. Test organisms were grown in the nutrient broth for 20 hours at 37° C. The hardened surface was inoculated with a loopful of the test organism solution containing 1×10^6 cells per milliliter and incubated for 20 hours at 37° C. At the end of this period, growth of the organism was observed. […] The following Table 1 summarizes the activity of representative compounds as active antibacterial agents, and compares them with the reference drug Sulbenicillin."}, "[2]": {"test_system": "Pseudomonas aeruginosa M-16", "settings": "ATCC15692, 20 h, read-out: Minimum Inhibitory concentration (MIC) Pseudomonas aeruginosa M-16", "experimental": "as §1, §2"}, "[3]": {"test_system": "Pseudomonas aeruginosa M-2008", "settings": "ATCC15691, 20 h, read-out: Minimum Inhibitory concentration (MIC) Pseudomonas aeruginosa M-2008", "experimental": "as §1, §2"}}, "data": [{"smiles": "CC1(C)S[C@@H]2[C@H](NC(=O)C(c3ccccc3)S(=O)(=O)O)C(=O)N2[C@H]1C(=O)O", "note": "(stereo partly drawn) [11 Sulbenicillin, Sulbenicillin, reference compound]", "values": [{"measurement": "MIC", "setting": "[1]", "value": 25, "unit": "µg/mL"}, {"measurement": "MIC", "setting": "[2]", "value": 25, "unit": "µg/mL"}, {"measurement": "MIC", "setting": "[3]", "value": 25, "unit": "µg/mL"}]}, {"smiles": "CC1(C)S[C@@H]2[C@H](NC(=O)[C@H](NC(=O)c3nc4cc(Br)cnc4nc3O)c3ccc(O)cc3)C(=O)N2[C@H]1C(=O)O", "note": "[Compound 6]", "values": [{"measurement": "MIC", "setting": "[2]", "value": "< 1.5", "unit": "µg/mL"}, {"measurement": "MIC", "setting": "[3]", "value": 3.1, "unit": "µg/mL"}]}, {"smiles": "CC1(C)S[C@@H]2[C@H](NC(=O)[C@H](NC(=O)c3nc4cc(Cl)cnc4nc3O)c3ccc(O)cc3)C(=O)N2[C@H]1C(=O)O", "note": "[Compound 4]", "values": [{"measurement": "MIC", "setting": "[2]", "value": 3.1, "unit": "µg/mL"}, {"measurement": "MIC", "setting": "[3]", "value": 6.2, "unit": "µg/mL"}]}, {"smiles": "Cc1nc2nc(O)c(C(=O)N[C@@H](C(=O)N[C@@H]3C(=O)N4[C@@H]3SC(C)(C)[C@@H]4C(=O)O)c3ccc(O)cc3)nc2cc1Br", "note": "[Compound 10]", "values": [{"measurement": "MIC", "setting": "[2]", "value": 1.5, "unit": "µg/mL"}]}, {"smiles": "CC1(C)S[C@@H]2[C@H](NC(=O)[C@H](NC(=O)c3nc4cccnc4nc3O)c3ccc(O)cc3)C(=O)N2[C@H]1C(=O)O", "note": "[Compound 2, potassium 6-[D-2-(3-hydroxypyrido[2,3-b]pyrazine-2-carboxamido)-2-(p-hydroxyphenyl)acetamido]penicillanate]", "values": [{"measurement": "MIC", "setting": "[1]", "value": "< 1.5", "unit": "µg/mL"}, {"measurement": "MIC", "setting": "[2]", "value": 0.78, "unit": "µg/mL"}, {"measurement": "MIC", "setting": "[3]", "value": 3.1, "unit": "µg/mL"}]}, {"smiles": "CC1(C)S[C@@H]2[C@H](NC(=O)[C@H](NC(=O)c3nc4cncnc4nc3O)c3ccc(O)cc3)C(=O)N2[C@H]1C(=O)O", "note": "[Compound 8]", "values": [{"measurement": "MIC", "setting": "[2]", "value": "< 1.56", "unit": "µg/mL"}]}]}
